In article PMC5064002, “Sintokamide A Is a Novel Antagonist of Androgen Receptor That Uniquely Binds Activation Function-1 in Its Amino-terminal Domain” (The Journal of Biological Chemistry, 2016):

Assays:
[1] = molecular target: T1, AR-YFP (Homo sapiens, UniProt P10275); experiment: AR nuclear translocation (AR-YFP) in LNCaP cells; type: cell-based; details: 10 μM compound
T1 construct: expressed in transfected cells; host or cells: LNCaP
T1 sequence (P10275 1-920): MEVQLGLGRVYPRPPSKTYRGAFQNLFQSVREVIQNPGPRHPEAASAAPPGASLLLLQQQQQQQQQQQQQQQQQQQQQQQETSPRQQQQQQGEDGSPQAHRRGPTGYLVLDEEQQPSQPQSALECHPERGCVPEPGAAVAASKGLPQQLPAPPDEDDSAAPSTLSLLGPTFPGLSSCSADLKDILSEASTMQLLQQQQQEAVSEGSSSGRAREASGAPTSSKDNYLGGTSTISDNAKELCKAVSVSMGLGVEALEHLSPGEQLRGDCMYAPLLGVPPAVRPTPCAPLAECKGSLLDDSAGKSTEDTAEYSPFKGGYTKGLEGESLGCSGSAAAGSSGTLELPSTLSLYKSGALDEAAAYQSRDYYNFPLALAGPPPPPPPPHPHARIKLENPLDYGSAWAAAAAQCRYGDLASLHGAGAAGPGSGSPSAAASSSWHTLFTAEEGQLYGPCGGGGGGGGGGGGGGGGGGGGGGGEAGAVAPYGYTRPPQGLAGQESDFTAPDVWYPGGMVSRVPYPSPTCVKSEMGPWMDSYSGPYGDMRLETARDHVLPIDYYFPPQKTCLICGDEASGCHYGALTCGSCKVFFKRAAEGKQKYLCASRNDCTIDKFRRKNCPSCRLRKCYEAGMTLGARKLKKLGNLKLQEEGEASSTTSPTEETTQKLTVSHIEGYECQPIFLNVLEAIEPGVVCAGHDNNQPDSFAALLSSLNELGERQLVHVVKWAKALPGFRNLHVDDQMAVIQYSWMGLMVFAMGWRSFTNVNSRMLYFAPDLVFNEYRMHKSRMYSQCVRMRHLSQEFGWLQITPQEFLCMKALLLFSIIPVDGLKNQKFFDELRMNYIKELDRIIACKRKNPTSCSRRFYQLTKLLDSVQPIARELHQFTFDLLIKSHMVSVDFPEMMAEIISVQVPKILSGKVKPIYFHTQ
Experimental: Cells were exposed to 1 nM R1881 for an additional 2 h, fixed with paraformaldehyde, and mounted in Vectashield antifade mounting medium with DAPI (H-1200, Vector Laboratories). Cellular localization of AR was examined by fluorescence microscopy using an Axiovert 200 microscope equipped with a YFP filter (excitation, 500/20 nm; emission, 535/30 nm; Zeiss, Toronto, Ontario, Canada). Images were taken using a Axiocam MR camera and the AxioVision 4.4 software (Zeiss, Toronto, ON, Canada).

[2] = system: FL-AR- and AR-V7-regulated genes; experiment: AR-FL- and AR-V7-regulated gene expression (quantitative RT-PCR) in LNCaP95 cells; type: cell-based
Experimental: At 48 h, total RNA was isolated using a PureLink RNA Mini kit (Invitrogen). For in vivo expression, tumors were harvested 3 days after last treatment, and RNA was extracted using TRIzol. Prior to cDNA generation, 4 μg of RNA were DNase-treated using DNase I (amplification grade; Sigma-Aldrich). DNase-treated RNA was split into two tubes (+RT and −RT), and cDNA was generated using the High Capacity RNA-cDNA kit (Applied Biosystems). Once complete, both reactions were adjusted to 5 ng/μl and stored at −20 °C. Approximately 5 ng of diluted cDNA and gene-specific primers were mixed with Platinum SYBR Green qPCR SuperMix-UDG with ROX (Invitrogen). The transcripts were measured using an ABI PRISM 7900 Sequence Detection System (Invitrogen). For all quantitative RT-PCR experiments, each sample was tested in triplicate, and gene expression levels were normalized to the reference gene RPL13A. Neuron-specific enolase (ENO2) (Gene ID, 2026; pair 1) and synaptophysin (SYP) (Gene ID, 6855; pair 2) human primers were from Sigma Life Science. All other primers were described previously ([4], [9]) and purchased from Integrated DNA Technologies.

[3] = system: LNCaP xenografts; experiment: LNCaP CRPC xenografts in castrated mice; type: in vivo, NOD-SCID mice
Experimental: Male NOD-SCID mice bearing subcutaneous LNCaP or LNCaP95 tumors were castrated when the tumor volume reached ∼100 mm^3. Seven days after castration, animals were injected intratumorally with 30 mg/kg of body weight SINT1 or a matching volume of vehicle (DMSO) every 3 days for a total of 15 days. Animal behavior and body weight were observed throughout the study period for signs of toxicity. Tumor volumes were calculated by the formula length × width × height × 0.5236. Tumors were excised 3 days after the last injection and prepared for immunohistochemistry or gene expression.
Xenograft sections were stained with hematoxylin and eosin and for Ki67 expression by Wax it Histology Inc. Cells that were positive for Ki67 were counted in sections from three xenografts for each treatment. For PSA and AR staining, dewaxed sections were microwaved for 10 min on full power in prewarmed Antigen Unmasking Solution (pH 6; Vector Laboratories, Inc.). The endogenous peroxidase activity was blocked by incubation in 3% H2O2 for 10 min followed by incubation in Clear Vision Histostaining Blocking Solution (UniCure Lab, Inc.) for 1 h at room temperature. Sections were incubated with AR-N20 (1:500 dilution) and PSA (1:5 dilution; overnight at 4 °C) primary antibodies. Samples were then incubated for 30 min at room temperature with secondary antibodies and mounted in Permount mounting medium (SP15–100, Fisher).

[4] = LNCaP95, 10 μM SINT1, 1 nM R1881 48 h

Compound: CCC(=O)NC(CC(C)C(Cl)(Cl)Cl)C(=O)N1C(=O)C=C(OC)C1CC(C)C(Cl)Cl (stereo not drawn) [SINT1, Sintokamide A]
- nuclear translocation of AR in the absence of androgen [1]: AR remained cytoplasmic
- nuclear translocation of AR in the presence of androgen ([1]; 1 nM R1881 2 h): Androgen induced AR translocation to the nucleus regardless of treatments
- androgen-induced transcript of FL-AR-regulated gene RHOU [2, 4]: exception
- androgen-induced transcripts of FL-AR-regulated genes KLK3/PSA, KLK2, TMPRSS2, NKX3.1, FKBP5 and SLC1A1 [2, 4]: significantly repressed
- levels of AR-V7 target gene transcripts cyclin A2, CDC20, UBE2C and CDK1 ([2]; LNCaP95, 10 μM SINT1, 48 h): significantly repressed
- levels of AR-V7 transcript ([2]; LNCaP95, 10 μM SINT1, 48 h): no significant effect
- levels of FL-AR mRNA ([2]; LNCaP95, 10 μM SINT1, 48 h, compared with vehicle control): did not lead to an increase
- CRPC tumor overall growth ([3]; castrated mice, 30 mg/kg intratumorally every 3 days, five doses, n = 8, p = 0.0495): 112 ± 13%
- animals achieving a serum PSA drop of ≥50% ([3]; day 15 vs day of first dose): six
- number of Ki67-positive cells in harvested xenografts ([3]; immunohistochemistry): reduced
- levels of PSA in xenografts ([3]; immunohistochemistry, vs vehicle control): marked decreases
- levels and cellular localization of AR protein in xenografts ([3]; immunohistochemistry, vs vehicle-treated): similar
